Measurements as given in patent US11230535B2, “CFTR regulators and methods of use thereof” (THE REGENTS OF THE UNIVERSITY OF CALIFORNIA, priority 2015, dated 2022).
Entries after “also recorded” stand apart in the source; their conditions may differ.

How the values were obtained:
cytoplasmic calcium = test: Cytoplasmic calcium by Fluo-4 fluorescence in FRT cells; type: cell-based, rat; conditions: 10 μM; for inhibition of the ATP-stimulated elevation in cytoplasmic calcium: 100 μM ATP
Experimental: (§1) cAMP and Ca^2+ assays. FRT cells expressing wildtype CFTR were cultured in 12-well plates. After washing with PBS, cells were incubated for 10 min with compounds in the absence or presence of 90 nM forskolin and then lysed. Lysates were assayed for cAMP content using a cAMP immunoassay kit (Parameter cAMP Immunoassay Kit, R&D Systems, Minneapolis, Minn.). For cytoplasmic calcium measurements, FRT cells in 96-well black-walled microplates were loaded with Fluo-4 NW (Invitrogen, Carlsbad, Calif.) and Fluo-4 fluorescence was measured with a plate reader equipped with syringe pumps and monochromators.

TMEM16A = biological target: T1, TMEM16A (Homo sapiens, UniProt Q5XXA6); test: TMEM16A plate reader assay in FRT cells expressing YFP and TMEM16A; type: cell-based; conditions: 10 μM
T1 construct: expressed in transfected cells; host or cells: Fischer rat thyroid (FRT) cells stably co-expressing YFP-H148Q
T1 sequence (Q5XXA6 1-986): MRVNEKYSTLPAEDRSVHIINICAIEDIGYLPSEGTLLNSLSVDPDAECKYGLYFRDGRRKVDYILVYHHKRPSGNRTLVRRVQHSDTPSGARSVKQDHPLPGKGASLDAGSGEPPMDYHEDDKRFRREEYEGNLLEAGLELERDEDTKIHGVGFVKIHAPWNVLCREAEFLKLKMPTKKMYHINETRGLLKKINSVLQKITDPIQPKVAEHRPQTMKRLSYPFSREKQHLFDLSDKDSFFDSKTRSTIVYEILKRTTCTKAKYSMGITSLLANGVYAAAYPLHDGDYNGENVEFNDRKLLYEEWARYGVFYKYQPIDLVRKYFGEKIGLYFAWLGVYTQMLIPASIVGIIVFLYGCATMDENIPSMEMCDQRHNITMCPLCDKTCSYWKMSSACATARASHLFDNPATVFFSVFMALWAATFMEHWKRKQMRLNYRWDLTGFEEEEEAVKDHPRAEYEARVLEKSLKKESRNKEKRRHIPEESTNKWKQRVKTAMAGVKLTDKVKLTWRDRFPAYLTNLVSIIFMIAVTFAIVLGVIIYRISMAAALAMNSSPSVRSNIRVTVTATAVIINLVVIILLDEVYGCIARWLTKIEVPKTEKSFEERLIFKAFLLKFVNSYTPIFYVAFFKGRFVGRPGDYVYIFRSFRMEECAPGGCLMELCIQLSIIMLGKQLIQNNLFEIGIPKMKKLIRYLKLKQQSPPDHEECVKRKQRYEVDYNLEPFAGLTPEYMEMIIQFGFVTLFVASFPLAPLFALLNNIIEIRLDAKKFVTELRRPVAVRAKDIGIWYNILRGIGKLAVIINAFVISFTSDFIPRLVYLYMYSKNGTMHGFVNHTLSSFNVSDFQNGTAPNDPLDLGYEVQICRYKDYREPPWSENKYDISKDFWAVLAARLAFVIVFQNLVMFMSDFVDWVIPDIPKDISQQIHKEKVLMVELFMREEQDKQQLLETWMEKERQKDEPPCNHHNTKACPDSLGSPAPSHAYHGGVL
Experimental: Platereader assays of chloride channel function. CFTR activity was assayed as described. FRT cells co-expressing YFP and wildtype CFTR were washed with phosphate-buffered saline (PBS) and then incubated for 10 min with test compounds in PBS containing 125 nM forskolin. I^− influx was measured in a plate reader with initial baseline read for 2 s and then for 12 s after rapid addition of an I^−-containing solution. TMEM16A activity was assayed similarly as described using FRT cells co-expressing YFP and TMEM16A. Activity of non-TMEM16A CaCC was assayed as described in HT-29 cells expressing YFP. In each assay initial rates of I^− influx were computed as a linear measure of channel function.

[1] = test system: human bronchial epithelial (HBE) cells; test: Short-circuit current in primary human bronchial epithelial (HBE) cells; type: cell-based; conditions: for short-circuit current responses to ENaC, maximal forskolin or ATP: 10 μM, 10 min pretreatment
Experimental: FIGS. 16A-16E. Characterization of 6k and 12. FIG. 16A. Cellular cAMP in FRT cells following incubation for 10 min with 10 μM 6k or 12, without or with 90 nM forskolin (fsk), as well as forskolin alone (90 nM and 20 μM) and forskolin (20 μM)+IBMX (100 μM) (mean±S.E.M., n=4). FIG. 16B. Cytoplasmic calcium measured by Fluo-4 fluorescence. FRT cells were pretreated for 5 min with 10 μM 6k or 12 (or control), with 100 μM ATP added as a calcium agonist as indicated. FIG. 16C. TMEM16A activity measured in FRT cells expressing YFP showing no inhibition (left, iodide+ATP addition) or activation (right, iodide addition) by 10 μM 6k or 12. FIG. 16D. […] FIG. 16E. (left) Short circuit-current in primary cultures of human bronchial epithelial cells in response to agonists and inhibitors that target key ion transport processes: 20 μM amiloride (ami); 20 μM forskolin (fsk); 10 μM CFTRinh-172; 100 μM ATP. Experiments were done without activator or following 10-min preincubation with 10 μM 6k or 12 (right). CFTR activation by 12 after 100 nM forskolin (20 μM amil, 10 μM CFTRinh-172, 100 μM ATP). Studies in B-E are representative of 2-4 separate sets of experiments.
Short-circuit current measurement. Short-circuit current measurements were done as described. Briefly, Snapwell (Corning Costar, Corning, N.Y.) inserts containing CFTR-expressing FRT cells or human bronchial epithelial cells were mounted in Ussing chambers (Physiological Instruments, San Diego, Calif.). For FRT cells the hemichambers were filled with 5 ml of HCO3^−-buffered solution (basolateral) and half-Cl^− solution (apical), and the basolateral membrane was permeabilized with 250 μg/ml amphotericin B. Symmetrical HCO3^−-buffered solutions were used for human bronchial epithelial cells. Solutions were bubbled with 95% O2/5% CO2 and maintained at 37° C., and short-circuit current was measured on a DVC-1000 voltage clamp (World Precision Instruments Inc., Sarasota, Fla.) using Ag/AgCl electrodes and 3 M KCl agar bridges.

cAMP = test: Cellular cAMP immunoassay in CFTR-expressing FRT cells; type: cell-based, rat; conditions: 10 μM, 10 min
Experimental: as §1

[2] = Compound accumulation in systemic tissues after 14 days topical dosing; type: in vivo, mouse; conditions: for amount in mouse blood, brain, liver and kidney (below limit of detection): two weeks, three times per day topical 0.1 nmol

Structure (SMILES)	increase of cytoplasmic calcium (cytoplasmic calcium)	inhibition of the ATP-stimulated elevation in cytoplasmic calcium (cytoplasmic calcium)	effect on calcium-activated chloride channels in TMEM16A-expressing FRT cells (TMEM16A)	short-circuit current responses to ENaC, maximal forskolin or ATP [1]	cellular cAMP (cAMP)	amount in mouse blood, brain, liver and kidney (below limit of detection) [2] [fmol]	systemic absorption, in words ([2]; topical)	CFTR activation in HBE cells after forskolin ([1]; 0.1 μM, following 100 nM forskolin)	CFTR activation in HBE cells without forskolin ([1]; absence of basal CFTR phosphorylation)
CCN(CC)c1nc(Nc2ccc3ncsc3c2)nc(OC(C(F)(F)F)C(F)(F)F)n1 [6k, N′-(1,3-Benzothiazol-6-yl)-N,N-diethyl-6-[(1,1,1,3,3,3-hexafluoropropan-2-yl)oxy]-1,3,5-triazine-2,4-diamine]	did not	did not	no inhibition; also recorded: neither inhibited nor activated	did not alter short-circuit current responses	did not elevate cellular cAMP	–	–	–	–
Nc1ccc([N+](=O)[O-])cc1-c1nc2ccccc2n(Cc2ccccc2)c1=O [CFTRact-J027, 3-(2-amino-5-nitrophenyl)-1-benzylquinoxalin-2(1H)-one]	–	–	–	–	–	< 700	–	–	–
CCN(CC)c1nc(Nc2ccccc2)nc(OC(C(F)(F)F)C(F)(F)F)n1 [CFTRact-K089, N,N-Diethyl-6-[(1,1,1,3,3,3-hexafluoropropan-2-yl)oxy]-N′-phenyl-1,3,5-triazine-2,4-diamine]	–	–	–	–	–	< 10	without detectable systemic absorption	–	–
CNc1nc(Nc2ccccc2)nc(OCC(F)(F)C(F)F)n1 [compound 12, N-methyl-N′-phenyl-6-(2,2,3,3-tetrafluoropropoxy)-1,3,5-triazine-2,4-diamine]	without causing cAMP or calcium elevation; also recorded: did not	did not	no inhibition; also recorded: neither inhibited nor activated	did not alter short-circuit current responses	without causing cAMP or calcium elevation; also recorded: did not elevate cellular cAMP	–	–	fully activated CFTR	did not activate CFTR
